Data: the kinase profiling compilation of Christmann-Franck et al. (2016)

Legend:
Assay in all cases: radiometric filter-binding kinase assay
PHKG1 (human) = PHKG1 (human) (UniProt Q16816)
LCK (mouse) = settings: accession and sequence are those of the human protein
INSRR (human) = INSRR (human) (UniProt P14616)
[1] = biological target: STK11 CAB39 STRADA (human) (UniProt Q9Y376+Q7RTN6+Q15831)
CSNK2A1 (human) = CSNK2A1 (human) (UniProt P68400)
TTK (human) = TTK (human) (UniProt P33981)
PIM3 (human) = PIM3 (human) (UniProt Q86V86)
MARK2 (human) = MARK2 (human) (UniProt Q7KZI7)
MKNK1 (human) = MKNK1 (human) (UniProt Q9BUB5)
EPHB1 (human) = EPHB1 (human) (UniProt P54762)
MAPK10 (human) = MAPK10 (human) (UniProt P53779)
[2] = test system: RPS6KB1 (human), P23443 [T412E]
MAP2K6 (human) = MAP2K6 (human) (UniProt P52564)
INSR (human) = INSR (human) (UniProt P06213)
TBK1 (human) = TBK1 (human) (UniProt Q9UHD2)
MAPK13 (human) = MAPK13 (human) (UniProt O15264)
PKN2 (human) = PKN2 (human) (UniProt Q16513)
IRAK4 (human) = IRAK4 (human) (UniProt Q9NWZ3)
FGFR1 (human) = FGFR1 (human) (UniProt P11362)
[3] = test system: PAK2 (human), Q13177 [T402E]
ROCK2 (rat) = settings: accession and sequence are those of the human protein
GSK3B (human) = GSK3B (human) (UniProt P49841)
NEK2 (human) = NEK2 (human) (UniProt P51955)
MAP2K1 (human) = MAP2K1 (human) (UniProt Q02750)
PIM2 (human) = PIM2 (human) (UniProt Q9P1W9)
SRPK1 (human) = SRPK1 (human) (UniProt Q96SB4)
MAP3K9 (human) = MAP3K9 (human) (UniProt P80192)
EPHA2 (human) = EPHA2 (human) (UniProt P29317)
DYRK3 (human) = DYRK3 (human) (UniProt O43781)
MYLK (human) = MYLK (human) (UniProt Q15746)
[4] = test system: AKT2 (human), P31751 [S474D]
MAPK11 (human) = MAPK11 (human) (UniProt Q15759)
[5] = test system: AKT1 (human), P31749 [S473D]
NEK6 (human) = NEK6 (human) (UniProt Q9HC98)
MARK1 (human) = MARK1 (human) (UniProt Q9P0L2)
SYK (human) = SYK (human) (UniProt P43405)

FGFR1 (human), sequence (P11362 whole entry, looked up): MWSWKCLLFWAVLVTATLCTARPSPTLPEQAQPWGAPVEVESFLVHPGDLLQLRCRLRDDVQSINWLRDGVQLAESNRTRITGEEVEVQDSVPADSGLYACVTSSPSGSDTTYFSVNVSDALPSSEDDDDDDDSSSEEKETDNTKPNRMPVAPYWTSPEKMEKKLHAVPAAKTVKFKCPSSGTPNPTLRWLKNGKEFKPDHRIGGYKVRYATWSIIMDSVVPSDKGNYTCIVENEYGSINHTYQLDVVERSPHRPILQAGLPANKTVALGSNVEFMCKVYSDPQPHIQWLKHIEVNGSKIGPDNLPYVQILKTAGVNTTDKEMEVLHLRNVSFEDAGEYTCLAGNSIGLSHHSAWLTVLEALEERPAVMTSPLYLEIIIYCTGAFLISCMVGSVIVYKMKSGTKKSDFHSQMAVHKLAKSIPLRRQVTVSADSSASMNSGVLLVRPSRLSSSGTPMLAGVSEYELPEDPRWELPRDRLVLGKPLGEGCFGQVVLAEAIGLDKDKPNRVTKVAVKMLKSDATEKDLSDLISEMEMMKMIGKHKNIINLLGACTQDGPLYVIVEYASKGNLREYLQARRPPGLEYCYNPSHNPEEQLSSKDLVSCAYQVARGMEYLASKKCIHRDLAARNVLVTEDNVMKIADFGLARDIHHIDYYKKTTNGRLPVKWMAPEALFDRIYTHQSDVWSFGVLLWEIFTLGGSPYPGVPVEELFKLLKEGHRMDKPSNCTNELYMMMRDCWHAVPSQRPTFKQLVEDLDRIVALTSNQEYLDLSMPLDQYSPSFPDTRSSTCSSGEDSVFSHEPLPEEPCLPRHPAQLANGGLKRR
INSRR (human), sequence (P14616 whole entry, looked up): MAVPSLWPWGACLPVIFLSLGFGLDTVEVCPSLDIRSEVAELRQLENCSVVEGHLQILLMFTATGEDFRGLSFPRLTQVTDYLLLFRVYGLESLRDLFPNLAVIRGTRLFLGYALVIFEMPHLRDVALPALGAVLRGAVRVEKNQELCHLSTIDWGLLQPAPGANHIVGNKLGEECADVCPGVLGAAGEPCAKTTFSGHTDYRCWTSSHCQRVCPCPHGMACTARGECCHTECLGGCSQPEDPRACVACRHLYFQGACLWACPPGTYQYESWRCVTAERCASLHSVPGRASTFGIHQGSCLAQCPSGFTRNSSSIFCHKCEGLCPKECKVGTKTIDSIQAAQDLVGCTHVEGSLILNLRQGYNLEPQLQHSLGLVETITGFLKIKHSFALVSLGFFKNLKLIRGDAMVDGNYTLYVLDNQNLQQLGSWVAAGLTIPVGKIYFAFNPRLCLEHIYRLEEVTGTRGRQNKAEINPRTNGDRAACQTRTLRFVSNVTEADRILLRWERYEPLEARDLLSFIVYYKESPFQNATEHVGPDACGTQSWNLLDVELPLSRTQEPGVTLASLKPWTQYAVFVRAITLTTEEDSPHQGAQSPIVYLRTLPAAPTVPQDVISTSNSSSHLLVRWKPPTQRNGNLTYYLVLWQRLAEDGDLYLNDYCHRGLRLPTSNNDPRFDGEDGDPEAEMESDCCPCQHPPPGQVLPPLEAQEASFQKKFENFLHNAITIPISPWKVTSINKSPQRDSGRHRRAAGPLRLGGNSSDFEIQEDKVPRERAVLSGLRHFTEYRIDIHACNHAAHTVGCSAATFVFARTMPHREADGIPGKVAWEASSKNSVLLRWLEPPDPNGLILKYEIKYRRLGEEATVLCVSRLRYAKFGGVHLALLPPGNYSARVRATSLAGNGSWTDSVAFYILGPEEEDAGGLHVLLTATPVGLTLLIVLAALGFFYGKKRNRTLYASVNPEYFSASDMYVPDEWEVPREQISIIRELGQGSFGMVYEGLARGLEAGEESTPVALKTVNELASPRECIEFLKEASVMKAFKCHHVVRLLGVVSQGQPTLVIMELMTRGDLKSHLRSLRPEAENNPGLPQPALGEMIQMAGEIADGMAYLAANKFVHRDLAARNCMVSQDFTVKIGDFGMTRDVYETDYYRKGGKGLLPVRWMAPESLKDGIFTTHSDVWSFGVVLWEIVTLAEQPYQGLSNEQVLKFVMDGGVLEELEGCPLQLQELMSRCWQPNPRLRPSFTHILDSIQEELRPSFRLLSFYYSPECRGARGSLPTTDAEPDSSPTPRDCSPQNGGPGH
MARK2 (human), sequence (Q7KZI7 whole entry, looked up): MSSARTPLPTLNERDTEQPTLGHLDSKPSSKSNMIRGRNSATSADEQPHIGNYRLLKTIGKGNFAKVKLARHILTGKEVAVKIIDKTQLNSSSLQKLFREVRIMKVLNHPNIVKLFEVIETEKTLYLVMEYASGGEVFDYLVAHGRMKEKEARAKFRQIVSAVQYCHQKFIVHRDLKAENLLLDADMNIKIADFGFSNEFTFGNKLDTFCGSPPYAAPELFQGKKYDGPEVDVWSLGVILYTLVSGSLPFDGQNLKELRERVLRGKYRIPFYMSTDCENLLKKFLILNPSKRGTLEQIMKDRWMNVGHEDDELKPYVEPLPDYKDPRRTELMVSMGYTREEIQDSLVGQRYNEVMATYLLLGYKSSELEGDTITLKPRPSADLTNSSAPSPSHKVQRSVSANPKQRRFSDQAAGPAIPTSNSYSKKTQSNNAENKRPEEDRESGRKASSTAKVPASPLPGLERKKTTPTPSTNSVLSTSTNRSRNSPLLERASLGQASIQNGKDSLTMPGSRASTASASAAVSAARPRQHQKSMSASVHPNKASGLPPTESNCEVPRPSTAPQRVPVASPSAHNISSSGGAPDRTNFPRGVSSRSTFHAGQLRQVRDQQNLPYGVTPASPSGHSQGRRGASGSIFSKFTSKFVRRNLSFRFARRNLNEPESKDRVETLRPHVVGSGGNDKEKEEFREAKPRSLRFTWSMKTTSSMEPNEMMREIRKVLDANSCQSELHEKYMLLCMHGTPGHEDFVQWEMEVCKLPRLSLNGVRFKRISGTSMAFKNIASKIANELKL
PKN2 (human), sequence (Q16513 whole entry, looked up): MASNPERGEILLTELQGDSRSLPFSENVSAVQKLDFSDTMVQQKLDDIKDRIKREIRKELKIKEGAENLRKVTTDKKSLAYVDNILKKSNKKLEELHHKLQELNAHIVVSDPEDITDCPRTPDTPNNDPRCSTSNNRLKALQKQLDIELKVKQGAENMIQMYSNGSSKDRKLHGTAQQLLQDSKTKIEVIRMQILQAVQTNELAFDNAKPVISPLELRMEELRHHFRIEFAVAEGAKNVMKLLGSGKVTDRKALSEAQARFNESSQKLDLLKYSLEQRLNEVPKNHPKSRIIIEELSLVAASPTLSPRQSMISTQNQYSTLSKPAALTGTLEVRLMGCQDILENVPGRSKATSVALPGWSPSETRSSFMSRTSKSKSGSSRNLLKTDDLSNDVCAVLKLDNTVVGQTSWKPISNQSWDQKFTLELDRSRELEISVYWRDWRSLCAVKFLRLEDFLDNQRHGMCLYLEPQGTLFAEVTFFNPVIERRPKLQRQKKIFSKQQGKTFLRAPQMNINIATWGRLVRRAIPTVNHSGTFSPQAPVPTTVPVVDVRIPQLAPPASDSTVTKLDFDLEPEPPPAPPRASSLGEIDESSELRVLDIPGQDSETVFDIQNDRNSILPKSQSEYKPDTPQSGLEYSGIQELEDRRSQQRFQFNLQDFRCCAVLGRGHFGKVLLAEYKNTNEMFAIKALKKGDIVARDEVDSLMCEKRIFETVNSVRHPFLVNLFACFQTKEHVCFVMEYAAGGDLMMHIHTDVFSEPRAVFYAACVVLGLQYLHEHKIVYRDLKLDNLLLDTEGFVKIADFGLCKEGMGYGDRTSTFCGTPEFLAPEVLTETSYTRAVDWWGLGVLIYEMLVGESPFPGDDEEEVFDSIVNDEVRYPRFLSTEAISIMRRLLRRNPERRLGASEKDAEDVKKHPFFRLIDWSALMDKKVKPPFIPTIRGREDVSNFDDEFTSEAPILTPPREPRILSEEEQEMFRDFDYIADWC
TBK1 (human), sequence (Q9UHD2 whole entry, looked up): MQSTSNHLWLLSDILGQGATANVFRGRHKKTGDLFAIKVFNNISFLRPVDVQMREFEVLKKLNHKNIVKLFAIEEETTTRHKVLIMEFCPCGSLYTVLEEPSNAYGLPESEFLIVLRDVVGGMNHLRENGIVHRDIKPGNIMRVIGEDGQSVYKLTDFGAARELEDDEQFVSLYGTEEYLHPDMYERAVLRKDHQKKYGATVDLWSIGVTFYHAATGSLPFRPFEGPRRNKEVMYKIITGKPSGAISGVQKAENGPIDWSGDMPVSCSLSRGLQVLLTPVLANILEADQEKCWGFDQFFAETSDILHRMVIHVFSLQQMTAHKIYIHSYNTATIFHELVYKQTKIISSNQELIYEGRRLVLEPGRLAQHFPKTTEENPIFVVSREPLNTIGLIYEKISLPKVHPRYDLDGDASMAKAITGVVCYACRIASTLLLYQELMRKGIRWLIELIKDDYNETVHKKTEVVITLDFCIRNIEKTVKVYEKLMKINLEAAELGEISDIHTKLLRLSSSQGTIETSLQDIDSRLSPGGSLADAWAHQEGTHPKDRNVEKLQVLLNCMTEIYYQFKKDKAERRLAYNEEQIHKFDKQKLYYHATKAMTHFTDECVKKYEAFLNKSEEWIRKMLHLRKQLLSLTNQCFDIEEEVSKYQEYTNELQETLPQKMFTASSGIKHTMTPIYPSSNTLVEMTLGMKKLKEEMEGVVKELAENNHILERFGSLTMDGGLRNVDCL
AKT2 (human), P31751 [S474D], sequence (P31751 whole entry S474D, looked up): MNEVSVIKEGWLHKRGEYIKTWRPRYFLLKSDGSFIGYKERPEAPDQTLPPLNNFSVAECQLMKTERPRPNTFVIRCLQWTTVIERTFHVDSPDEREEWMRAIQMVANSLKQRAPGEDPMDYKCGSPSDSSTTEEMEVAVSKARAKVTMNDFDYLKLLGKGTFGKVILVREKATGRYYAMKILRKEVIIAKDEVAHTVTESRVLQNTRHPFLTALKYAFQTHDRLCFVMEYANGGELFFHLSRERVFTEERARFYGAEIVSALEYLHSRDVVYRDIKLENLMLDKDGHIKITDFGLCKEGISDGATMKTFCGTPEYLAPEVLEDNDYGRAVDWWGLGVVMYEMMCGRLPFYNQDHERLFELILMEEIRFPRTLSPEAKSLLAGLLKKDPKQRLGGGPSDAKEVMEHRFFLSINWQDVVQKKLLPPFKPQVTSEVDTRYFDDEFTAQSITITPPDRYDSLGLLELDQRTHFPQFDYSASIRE

`CCCC(CCC)C(=O)O` gave a residual activity (PHKG1 (human); compound 1.0 µM) of 110%, a residual activity (PHKG1 (human); compound 10.0 µM) of 89% and a residual activity (PHKG1 (human); compound 50.0 µM) of 81%. It also gave a residual activity (LCK (mouse); compound 1.0 µM) of 84%, a residual activity (LCK (mouse); compound 50.0 µM) of 106% and a residual activity (INSRR (human); compound 10.0 µM) of 101%. The residual activity (INSRR (human); compound 50.0 µM) was 101%, the residual activity ([1]; compound 10.0 µM) was 84% and the residual activity ([1]; compound 50.0 µM) was 85%. The residual activity (CSNK2A1 (human); compound 10.0 µM) was 86%, the residual activity (CSNK2A1 (human); compound 50.0 µM) was 86% and the residual activity (TTK (human); compound 10.0 µM) was 101%. The residual activity (TTK (human); compound 50.0 µM) was 82%, the residual activity (PIM3 (human); compound 10.0 µM) was 97% and the residual activity (PIM3 (human); compound 50.0 µM) was 95%. The residual activity (MARK2 (human); compound 10.0 µM) was 104%, the residual activity (MARK2 (human); compound 50.0 µM) was 90% and the residual activity (MKNK1 (human); compound 1.0 µM) was 86%. For the same compound, the residual activity (MKNK1 (human); compound 10.0 µM) was 112%, the residual activity (EPHB1 (human); compound 10.0 µM) was 107% and the residual activity (EPHB1 (human); compound 50.0 µM) was 106%. It also gave a residual activity (MAPK10 (human); compound 1.0 µM) of 88%, a residual activity (MAPK10 (human); compound 10.0 µM) of 85% and a residual activity (MAPK10 (human); compound 50.0 µM) of 89%. For the same compound, the residual activity ([2]; compound 1.0 µM) was 81%, the residual activity ([2]; compound 10.0 µM) was 84% and the residual activity ([2]; compound 50.0 µM) was 91%. It also gave a residual activity (MAP2K6 (human); compound 10.0 µM) of 95%, a residual activity (MAP2K6 (human); compound 50.0 µM) of 81% and a residual activity (INSR (human); compound 10.0 µM) of 66%. The residual activity (INSR (human); compound 50.0 µM) was 77%, the residual activity (TBK1 (human); compound 10.0 µM) was 99% and the residual activity (TBK1 (human); compound 50.0 µM) was 97%. The residual activity (MAPK13 (human); compound 1.0 µM) was 106%, the residual activity (MAPK13 (human); compound 10.0 µM) was 95% and the residual activity (MAPK13 (human); compound 50.0 µM) was 92%. For the same compound, the residual activity (PKN2 (human); compound 1.0 µM) was 83%, the residual activity (PKN2 (human); compound 10.0 µM) was 106% and the residual activity (IRAK4 (human); compound 10.0 µM) was 94%. For the same compound, the residual activity (IRAK4 (human); compound 50.0 µM) was 99%, the residual activity (FGFR1 (human); compound 10.0 µM) was 104% and the residual activity (FGFR1 (human); compound 50.0 µM) was 104%. For the same compound, the residual activity ([3]; compound 10.0 µM) was 86%, the residual activity ([3]; compound 50.0 µM) was 91% and the residual activity (ROCK2 (rat); compound 1.0 µM) was 84%. For the same compound, the residual activity (ROCK2 (rat); compound 10.0 µM) was 97%, the residual activity (ROCK2 (rat); compound 50.0 µM) was 89% and the residual activity (GSK3B (human); compound 1.0 µM) was 74%. For the same compound, the residual activity (GSK3B (human); compound 10.0 µM) was 79%, the residual activity (GSK3B (human); compound 50.0 µM) was 76% and the residual activity (NEK2 (human); compound 1.0 µM) was 79%. It also gave a residual activity (NEK2 (human); compound 10.0 µM) of 93%, a residual activity (NEK2 (human); compound 50.0 µM) of 91% and a residual activity (MAP2K1 (human); compound 1.0 µM) of 86%. It also gave a residual activity (MAP2K1 (human); compound 10.0 µM) of 89%, a residual activity (MAP2K1 (human); compound 50.0 µM) of 99% and a residual activity (PIM2 (human); compound 1.0 µM) of 83%. The residual activity (PIM2 (human); compound 10.0 µM) was 104%, the residual activity (PIM2 (human); compound 50.0 µM) was 98% and the residual activity (SRPK1 (human); compound 1.0 µM) was 94%. The residual activity (SRPK1 (human); compound 10.0 µM) was 107%, the residual activity (SRPK1 (human); compound 50.0 µM) was 108% and the residual activity (MAP3K9 (human); compound 10.0 µM) was 94%. For the same compound, the residual activity (MAP3K9 (human); compound 50.0 µM) was 102%, the residual activity (EPHA2 (human); compound 10.0 µM) was 95% and the residual activity (EPHA2 (human); compound 50.0 µM) was 99%. It also gave a residual activity (DYRK3 (human); compound 10.0 µM) of 87%, a residual activity (DYRK3 (human); compound 50.0 µM) of 91% and a residual activity (MYLK (human); compound 1.0 µM) of 98%. The residual activity (MYLK (human); compound 50.0 µM) was 96%, the residual activity ([4]; compound 10.0 µM) was 86% and the residual activity ([4]; compound 50.0 µM) was 80%. It also gave a residual activity (MAPK11 (human); compound 1.0 µM) of 82%, a residual activity (MAPK11 (human); compound 10.0 µM) of 91% and a residual activity (MAPK11 (human); compound 50.0 µM) of 106%. For the same compound, the residual activity ([5]; compound 1.0 µM) was 99%, the residual activity ([5]; compound 10.0 µM) was 99% and the residual activity ([5]; compound 50.0 µM) was 102%. For the same compound, the residual activity (NEK6 (human); compound 1.0 µM) was 99%, the residual activity (NEK6 (human); compound 10.0 µM) was 100% and the residual activity (NEK6 (human); compound 50.0 µM) was 102%. The residual activity (MARK1 (human); compound 10.0 µM) was 97%, the residual activity (MARK1 (human); compound 50.0 µM) was 101% and the residual activity (SYK (human); compound 10.0 µM) was 100%. It also gave a residual activity (SYK (human); compound 50.0 µM) of 98%.

Work on `CC(C)C[C@H](NC(=O)CNC(=O)c1cc(Cl)ccc1Cl)B1OC(=O)CC(CC(=O)O)(C(=O)O)O1` (stereo partly specified) yielded a residual activity (PHKG1 (human); compound 10.0 µM) of 44%, a residual activity (LCK (mouse); compound 10.0 µM) of 81% and a residual activity (INSRR (human); compound 10.0 µM) of 104%. It also gave a residual activity ([1]; compound 10.0 µM) of 124%, a residual activity (CSNK2A1 (human); compound 10.0 µM) of 82% and a residual activity (TTK (human); compound 10.0 µM) of 93%. The residual activity (PIM3 (human); compound 10.0 µM) was 92%, the residual activity (MARK2 (human); compound 10.0 µM) was 81% and the residual activity (MKNK1 (human); compound 10.0 µM) was 79%. The residual activity (EPHB1 (human); compound 10.0 µM) was 75%, the residual activity (MAPK10 (human); compound 10.0 µM) was 91% and the residual activity ([2]; compound 10.0 µM) was 94%. For the same compound, the residual activity (MAP2K6 (human); compound 10.0 µM) was 92%, the residual activity (INSR (human); compound 10.0 µM) was 58% and the residual activity (TBK1 (human); compound 10.0 µM) was 81%. It also gave a residual activity (MAPK13 (human); compound 10.0 µM) of 98%, a residual activity (PKN2 (human); compound 10.0 µM) of 86% and a residual activity (IRAK4 (human); compound 10.0 µM) of 79%. For the same compound, the residual activity (FGFR1 (human); compound 10.0 µM) was 69%, the residual activity ([3]; compound 10.0 µM) was 92% and the residual activity (ROCK2 (rat); compound 10.0 µM) was 76%. It also gave a residual activity (GSK3B (human); compound 10.0 µM) of 88%, a residual activity (NEK2 (human); compound 10.0 µM) of 94% and a residual activity (MAP2K1 (human); compound 10.0 µM) of 92%. For the same compound, the residual activity (PIM2 (human); compound 10.0 µM) was 94%, the residual activity (SRPK1 (human); compound 10.0 µM) was 90% and the residual activity (MAP3K9 (human); compound 10.0 µM) was 75%. For the same compound, the residual activity (EPHA2 (human); compound 10.0 µM) was 98%, the residual activity (DYRK3 (human); compound 10.0 µM) was 97% and the residual activity (MYLK (human); compound 10.0 µM) was 103%. For the same compound, the residual activity ([4]; compound 10.0 µM) was 82%, the residual activity (MAPK11 (human); compound 10.0 µM) was 70% and the residual activity ([5]; compound 10.0 µM) was 83%. For the same compound, the residual activity (NEK6 (human); compound 10.0 µM) was 82%, the residual activity (MARK1 (human); compound 10.0 µM) was 81% and the residual activity (SYK (human); compound 10.0 µM) was 66%.
